According to patent US10780090B2, “Heteroaryl compounds useful as inhibitors of SUMO activating enzyme” (Millennium Pharmaceuticals, Inc., priority 2014, dated 2020):
Where two headings read alike, the source gives them in different places.

Biological target: recombinant human SAE enzyme (Homo sapiens (Human), UniProt Q9UBT2)
Test: SAE HTRF enzyme assay
Format: biochemical
Details: for inhibition at 0.111 µM: read-out: Percent Inhibition
Summary of the method: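 Human SAE (0.11 nM) with 0.5 μM ATP, 0.125 μM Sumo-Flag and 0.01 μM Ubc9-GST in HEPES pH 7.5, 5 mM MgCl2, 250 μM GSH; 105 min at 24 °C. Stopped with EDTA; HTRF read after 2 h with Eu-anti-Flag and APC-anti-GST. Percent inhibition or IC50 reported.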

[1] = SAE inhibition at compound concentration 0.111 μM
[2] = SAE inhibition, class symbols, legend in nM

Sequence of recombinant human SAE enzyme (Q9UBT2 whole entry): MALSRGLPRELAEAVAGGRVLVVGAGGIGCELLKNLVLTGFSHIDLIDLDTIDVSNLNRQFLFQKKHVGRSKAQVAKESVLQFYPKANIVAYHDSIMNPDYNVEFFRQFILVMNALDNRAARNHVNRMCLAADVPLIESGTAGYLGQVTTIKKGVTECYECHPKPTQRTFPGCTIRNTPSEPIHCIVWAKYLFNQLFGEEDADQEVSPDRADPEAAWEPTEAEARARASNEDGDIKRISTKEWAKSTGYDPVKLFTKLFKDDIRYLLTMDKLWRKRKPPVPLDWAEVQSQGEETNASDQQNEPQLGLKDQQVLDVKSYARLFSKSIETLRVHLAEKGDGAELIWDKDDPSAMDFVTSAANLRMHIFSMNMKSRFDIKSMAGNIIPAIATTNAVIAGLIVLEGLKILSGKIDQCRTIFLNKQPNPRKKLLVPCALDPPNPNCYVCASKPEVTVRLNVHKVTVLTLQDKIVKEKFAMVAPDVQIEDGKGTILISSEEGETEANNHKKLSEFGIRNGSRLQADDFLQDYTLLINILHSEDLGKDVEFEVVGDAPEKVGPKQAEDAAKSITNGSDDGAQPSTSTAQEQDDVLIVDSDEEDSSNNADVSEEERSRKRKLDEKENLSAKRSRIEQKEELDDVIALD
Sequence of recombinant human SAE enzyme (Q9UBE0 whole entry partner): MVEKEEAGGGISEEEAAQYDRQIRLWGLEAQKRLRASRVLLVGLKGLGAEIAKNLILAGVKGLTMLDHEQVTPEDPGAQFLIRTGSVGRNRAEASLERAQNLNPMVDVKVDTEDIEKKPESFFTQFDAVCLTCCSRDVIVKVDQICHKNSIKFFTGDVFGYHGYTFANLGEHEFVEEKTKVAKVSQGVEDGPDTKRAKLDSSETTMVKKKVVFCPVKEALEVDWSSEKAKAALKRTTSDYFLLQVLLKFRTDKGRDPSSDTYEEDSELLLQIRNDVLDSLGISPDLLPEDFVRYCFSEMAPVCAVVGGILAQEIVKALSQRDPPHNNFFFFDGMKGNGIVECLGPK

Structure (SMILES) | Percent Inhibition (Concentration 0.111 μM) | IC50 (class symbols A/B/C) | inhibition at 0.111 µM (Concentration 0.111 μM) | other results
NS(=O)(=O)OC[C@H]1C[C@@H](Nc2ncncc2C(=O)c2cc([C@@H]3OCCc4ccc(Br)cc43)cs2)C[C@@H]1O (single isomer, unassigned) [I-268a, [(1R,2S,4R)-4-{[5-({4-[(1R)-7-bromo-3,4-dihydro-1H-isochromen-1-yl]-2-thienyl}carbonyl)pyrimidin-4-yl]amino}-2-hydroxycyclopentyl]methyl sulfamate or [(1R,2S,4R)-4-{[5-({4-[(1S)-7-bromo-3,4-dihydro-1H-isochromen-1-yl]-2-thienyl}carbonyl)pyrimidin-4-yl]amino}-2-hydroxycyclopentyl]methyl sulfamate] | 50 | 100 to 1000 nM | – | –
NS(=O)(=O)OC[C@H]1C[C@@H](Nc2ncncc2C(=O)c2cc(Sc3cccc(Cl)c3)c(Cl)s2)C[C@@H]1O [I-175, [(1R,2S,4R)-4-{[5-({5-chloro-4-[(3-chlorophenyl)sulfanyl]-2-thienyl}carbonyl)pyrimidin-4-yl]amino}-2-hydroxycyclopentyl]methyl sulfamate] | – | 10 to 100 nM | 90% | –
C[C@](O)(c1csc(C(=O)c2cncnc2N[C@@H]2C[C@H](COS(N)(=O)=O)[C@@H](O)C2)c1)c1cccc(Br)n1 (mixture of isomers) [I-54, [(1R,2S,4R)-4-{[5-({4-[(1S)-1-(6-bromopyridin-2-yl)-1-hydroxyethyl]-2-thienyl}carbonyl)pyrimidin-4-yl]amino}-2-hydroxycyclopentyl]methyl sulfamate and [(1R,2S,4R)-4-{[5-({4-[(1R)-1-(6-bromopyridin-2-yl)-1-hydroxyethyl]-2-thienyl}carbonyl)pyrimidin-4-yl]amino}-2-hydroxycyclopentyl]methyl sulfamate] | 99 | < 10 nM | – | –
NS(=O)(=O)OC[C@H]1C[C@@H](Nc2ncncc2C(=O)c2cc(Cn3ccc4ccc(Cl)cc43)cs2)C[C@@H]1O [I-125, [(1R,2S,4R)-4-{[5-({4-[(6-chloro-1H-indol-1-yl)methyl]-2-thienyl}carbonyl)pyrimidin-4-yl]amino}-2-hydroxycyclopentyl]methyl sulfamate] | – | < 10 nM | 97% | –
NS(=O)(=O)OC[C@H]1C[C@@H](Nc2ncncc2C(=O)c2cc([C@@H]3NCCc4ccccc43)cs2)C[C@@H]1O (single isomer, unassigned) [I-283a, [(1R,2S,4R)-2-hydroxy-4-{[5-({4-[(1R)-1,2,3,4-tetrahydroisoquinolin-1-yl]-2-thienyl}carbonyl)pyrimidin-4-yl]amino}cyclopentyl]methyl sulfamate or [(1R,2S,4R)-2-hydroxy-4-{[5-({4-[(1S)-1,2,3,4-tetrahydroisoquinolin-1-yl]-2-thienyl}carbonyl)pyrimidin-4-yl]amino}cyclopentyl]methyl sulfamate] | – | – | – | Percent Inhibition [1]: 99%; IC50 [2]: < 10 nM
N[C@@H](c1cccc(Br)n1)c1cc(C(=O)c2cncnc2N[C@@H]2C[C@H](COS(N)(=O)=O)[C@@H](O)C2)sc1Cl (single isomer, unassigned) [I-18b, [(1R,2S,4R)-4-{[5-({4-[(R)-amino(6-bromopyridin-2-yl)methyl]-5-chloro-2-thienyl}carbonyl)pyrimidin-4-yl]amino}-2-hydroxycyclopentyl]methyl sulfamate or [(1R,2S,4R)-4-{[5-({4-[(S)-amino(6-bromopyridin-2-yl)methyl]-5-chloro-2-thienyl}carbonyl)pyrimidin-4-yl]amino}-2-hydroxycyclopentyl]methyl sulfamate] | 99 | < 10 nM | – | –
Cc1sc(C(=O)c2cncnc2N[C@@H]2C[C@H](COS(N)(=O)=O)[C@@H](OC(=O)Cc3ccc(OP(=O)(O)O)cc3)C2)cc1[C@@H]1OCCc2ccc(Cl)cc21 [I-364, [(1S,2R,4R)-4-[[5-[4-[(1R)-7-chloroisochroman-1-yl]-5-methyl-thiophene-2-carbonyl]pyrimidin-4-yl]amino]-2-(sulfamoyloxymethyl)cyclopentyl] 2-(4-phosphonooxyphenyl)acetate] | – | – | – | inhibition at 0.111 µM [1]: 13%
Cc1sc(C(=O)c2cncnc2N[C@@H]2C[C@H](COS(N)(=O)=O)[C@@H](O)C2)cc1Sc1ccccc1 [I-137, {(1R,2S,4R)-2-hydroxy-4-[(5-{[5-methyl-4-(phenylsulfanyl)-2-thienyl]carbonyl}pyrimidin-4-yl)amino]cyclopentyl}methyl sulfamate] | – | – | 95% | –
NS(=O)(=O)OC[C@H]1C[C@@H](Nc2ncncc2C(=O)c2cc(CC3CCCCC3)cs2)C[C@@H]1O [I-199, {(1R,2S,4R)-4-[(5-{[4-(Cyclohexylmethyl)-2-thienyl]carbonyl}pyrimidin-4-yl)amino]-2-hydroxycyclopentyl}methyl sulfamate] | – | 10 to 100 nM | 63% | –
NS(=O)(=O)OC[C@H]1C[C@@H](Nc2ncncc2C(=O)c2ccc([C@@H]3OCCc4c(Cl)cccc43)s2)C[C@@H]1O (mixture of isomers) [I-325, [(1R,2S,4R)-4-{[5-({5-[(1R)-5-chloro-3,4-dihydro-1H-isochromen-1-yl]-2-thienyl}carbonyl)pyrimidin-4-yl]amino}-2-hydroxycyclopentyl]methyl sulfamate and [(1R,2S,4R)-4-{[5-({5-[(1S)-5-chloro-3,4-dihydro-1H-isochromen-1-yl]-2-thienyl}carbonyl)pyrimidin-4-yl]amino}-2-hydroxycyclopentyl]methyl sulfamate] | – | – | – | Percent Inhibition [1]: 60%; IC50 [2]: 10 to 100 nM
NS(=O)(=O)OCC1CC(Nc2ncncc2C(=O)c2cc(C(O)c3cccc(Br)c3)cs2)CC1O (mixture of isomers) [I-17, [(1R,2S,4R)-4-{[5-({4-[(R)-(3-bromophenyl)(hydroxy)methyl]-2-thienyl}carbonyl)pyrimidin-4-yl]amino}-2-hydroxycyclopentyl]methyl sulfamate and [(1R,2S,4R)-4-{[5-({4-[(S)-(3-bromophenyl)(hydroxy)methyl]-2-thienyl}carbonyl)pyrimidin-4-yl]amino}-2-hydroxycyclopentyl]methyl sulfamate] | 99 | < 10 nM | – | –
NS(=O)(=O)OC[C@H]1C[C@@H](Nc2ncncc2C(=O)c2cc(COc3ccccc3I)cs2)C[C@@H]1O [I-161, [(1R,2S,4R)-2-Hydroxy-4-{[-({4-(2-iodophenoxy)methyl]-2-thienyl}carbonyl)pyrimidin-4-yl]amino}cyclopentyl]methyl sulfamate] | 91 | < 10 nM | – | –
NS(=O)(=O)OC[C@H]1C[C@@H](Nc2ncncc2C(=O)c2cc(C3OCCc4ccc(Cl)cc43)cs2)C[C@@H]1O (single isomer, unassigned) [I-261b, [(1R,2S,4R)-4-{[5-({4-[(1R)-7-chloro-3,4-dihydro-1H-isochromen-1-yl]-2-thienyl}carbonyl)pyrimidin-4-yl]amino}-2-hydroxycyclopentyl]methyl sulfamate or [(1R,2S,4R)-4-{[5-({4-[(1S)-7-chloro-3,4-dihydro-1H-isochromen-1-yl]-2-thienyl}carbonyl)pyrimidin-4-yl]amino}-2-hydroxycyclopentyl]methyl sulfamate] | 99 | < 10 nM | – | –
